Consider six compounds from patent US8236822B2, “Compounds as cannabinoid receptor ligands” (Abbott Laboratories, priority 2009, dated 2012).

Test [1] concerns the target T1, rat CB2 receptors (Rattus norvegicus, UniProt Q9QZN9).
T1 construct: expressed in transfected cells; host or cells: HEK293
T1 sequence (Q9QZN9 1-360): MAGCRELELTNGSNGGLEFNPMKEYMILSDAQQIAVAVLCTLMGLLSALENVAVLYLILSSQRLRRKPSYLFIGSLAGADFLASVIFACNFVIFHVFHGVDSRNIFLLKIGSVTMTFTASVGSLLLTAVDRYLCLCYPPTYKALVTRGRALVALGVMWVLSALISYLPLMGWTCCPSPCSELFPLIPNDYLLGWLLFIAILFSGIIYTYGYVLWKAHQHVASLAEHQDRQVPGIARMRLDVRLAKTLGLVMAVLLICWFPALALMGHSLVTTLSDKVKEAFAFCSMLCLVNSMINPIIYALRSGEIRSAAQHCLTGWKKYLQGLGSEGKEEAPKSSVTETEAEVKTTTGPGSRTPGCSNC
The test is described as follows: rat CB2 radioligand binding assay ([3H]CP-55,940 competition). The procedure: (§1) In Vitro Methods—CB2 and CB1Radioligand Binding Assays:
(§2) The CB1 and CB2 radioligand binding assays described herein are utilized to ascertain the selectivity of compounds of the present application for binding to CB2 relative to CB′ receptors.
(§3) HEK293 cells stably expressing rat CB2 receptors were grown until a confluent monolayer was formed. Briefly, the cells were harvested and homogenized in TE buffer (50 mM Tris-HCl, 1 mM MgCl2, and 1 mM EDTA) using a polytron for 2×10 second bursts in the presence of protease inhibitors, followed by centrifugation at 45,000×g for 20 minutes. The final membrane pellet was re-homogenized in storage buffer (50 mM Tris-HCl, 1 mM MgCl2, and 1 mM EDTA and 10% sucrose) and frozen at −78° C. until used. Saturation binding reactions were initiated by the addition of membrane preparation (protein concentration of 20 μg/well for rat CB2) into wells of a deep well plate containing [^3H]CP-55,940 (120 Ci/mmol, a nonselective CB agonist commercially available from Tocris) in assay buffer (50 mM Tris, 2.5 mM EDTA, 5 mM MgCl2, and 0.5 mg/mL fatty acid free BSA, pH 7.4). After 45 min incubation at 30° C., binding reaction was terminated by the addition of 300 μL/well of cold assay buffer followed by rapid vacuum filtration through a UniFilter-96 GF/C filter plates (pre-soaked in 1 mg/mL BSA for 2 hours). The bound activity was counted in a TopCount using Microscint-20. Saturation experiments were conducted with twelve concentrations of [^3H]CP-55,940 ranging from 0.01 to 8 nM. Competition experiments were conducted with 0.5 nM [^3H]CP-55,940 and five concentrations of displacing ligands selected from the range of 0.01 nM to 10 μM. The addition of 10 μM unlabeled CP-55,940 (Tocris, Ellisville, Mo.) was used to assess nonspecific binding.

In test [2] the target is T2, human CB2 receptors (Homo sapiens, UniProt P34972).
T2 construct: expressed in transfected cells; host or cells: HEK293
T2 sequence (P34972 whole entry): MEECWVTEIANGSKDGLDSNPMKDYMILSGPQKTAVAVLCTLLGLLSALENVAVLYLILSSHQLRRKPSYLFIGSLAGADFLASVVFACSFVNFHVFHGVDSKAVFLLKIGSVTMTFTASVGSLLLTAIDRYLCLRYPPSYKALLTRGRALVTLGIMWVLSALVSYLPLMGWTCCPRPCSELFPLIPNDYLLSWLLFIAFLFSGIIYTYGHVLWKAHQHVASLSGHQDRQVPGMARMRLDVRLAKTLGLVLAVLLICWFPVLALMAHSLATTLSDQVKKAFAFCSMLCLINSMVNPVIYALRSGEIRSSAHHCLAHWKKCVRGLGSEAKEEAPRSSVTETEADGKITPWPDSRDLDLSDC
The test is described as follows: human CB2 radioligand binding assay ([3H]CP-55,940 competition). Here is the method: as §1, §2
as §3, with “expressing human” for “expressing rat”, “of 5” for “of 20”, “for human” for “for rat”, “After 90” for “After 45”, “concentrations (0.01” for “concentrations of displacing ligands selected from the range of 0.01”, “10 μM) of displacing ligands.” for “10 μM.”

What is called pKi is the Ki on a negative log10 scale, so that one unit is a factor of ten.

pKi: −log10 of the molar value. Read-outs that look alike come from different tables or passages of the source.

As for `Cn1c(C(C)(C)C)c/c(=N\C(=O)c2cc(C(F)(F)F)ccc2OCCNC(C)(C)C)n1CC1CC1` [Example 1, 2-[2-(tert-butylamino)ethoxy]-N-[(3E)-5-tert-butyl-2-(cyclopropylmethyl)-1-methyl-1,2-dihydro-3H-pyrazol-3-ylidene]-5-(trifluoromethyl)benzamide], the figures for the pKi in test [1] and in test [2] were 7.35 and 6.91, respectively. `Cn1c(C(C)(C)C)c/c(=N\C(=O)c2cc(C(F)(F)F)ccc2OC2CN(C(C)(C)C)C2)n1CC1CC1` [Example 2, 2-[(1-tert-butylazetidin-3-yl)oxy]-N-[(3E)-5-tert-butyl-2-(cyclopropylmethyl)-1-methyl-1,2-dihydro-3H-pyrazol-3-ylidene]-5-(trifluoromethyl)benzamide] showed a pKi in test [1] of 6.34. `CCCCn1nc(C(C)(C)C)s/c1=N\C(=O)c1cc(C(F)(F)F)ccc1OC1CN(C(C)(C)C)C1` [Example 3, 2-[(1-tert-butylazetidin-3-yl)oxy]-N-[(2Z)-3-butyl-5-tert-butyl-1,3,4-thiadiazol-2(3H)-ylidene]-5-(trifluoromethyl)benzamide]: the negative-log Ki (pKi) is 7.54 in test [1] and 7.33 in test [2]. In the case of `CCCCn1/c(=N/C(=O)c2cc(C(F)(F)F)ccc2OCCNC(C)(C)C)cc(C(C)(C)C)n1C` [Example 4, 2-[2-(tert-butylamino)ethoxy]-N-[(3E)-2-butyl-5-tert-butyl-1-methyl-1,2-dihydro-3H-pyrazol-3-ylidene]-5-(trifluoromethyl)benzamide], the pKi in test [1] (HEK293 membranes expressing rat CB2, 0.5 nM [3H]CP-55,940, read-out: rat CB2 binding (Ki)) is 6.98. `Cn1c(C(C)(C)C)c/c(=N\C(=O)c2cc(C(F)(F)F)ccc2OCCNC(C)(C)C)n1CC1CCC1` [Example 5, 2-[2-(tert-butylamino)ethoxy]-N-[(3E)-5-tert-butyl-2-(cyclobutylmethyl)-1-methyl-1,2-dihydro-3H-pyrazol-3-ylidene]-5-(trifluoromethyl)benzamide]: in test [2], the pKi was 6.70.

Compound `CN1CC[C@H](Oc2ccc(C(F)(F)F)cc2C(=O)/N=c2\cc(C(C)(C)C)n(C)n2CC2CCC2)C1` [Example 6, N-[(3E)-5-tert-butyl-2-(cyclobutylmethyl)-1-methyl-1,2-dihydro-3H-pyrazol-3-ylidene]-2-{[(3S)-1-methylpyrrolidin-3-yl]oxy}-5-(trifluoromethyl)benzamide] had a pKi in test [1] of 6.38.
